Measured values taken from patent US10413505B1, “Pharmaceutical compositions and methods of using the same” (priority 2017, dated 2019).
Read-outs that look alike come from different tables or passages of the source.

Legend:
Type in all cases: in vivo, human
[1] = Example 1 urinary pharmacokinetics after intranasal administration; conditions: human, urine, 160 mg, healthy subjects, single intranasal 160 mg cocaine HCl; for dose excreted: other: intranasal, urine 0-12 h, metabolites as cocaine equivalents
Procedure: (§1) A single dose of a pharmaceutical composition was administered to both nostrils using cottonoid pledgets. […] Each pledget absorbed approximately 1 mL of pharmaceutical composition (i.e., 40 mg cocaine hydrochloride). Two soaked pledgets were placed into each nasal cavity of the subject and against the anterior septum for 20 minutes; thus, a total dose of 160 mg of cocaine hydrochloride was administered.
Urine samples were collected pre-dose and at the following intervals from the start of intranasal application of the pharmaceutical composition: 0-2 hours, 2-4 hours, 4-8 hours, and 8-12 hours. […] A 25-μL aliquot of each urine sample was processed by liquid-liquid extraction.
Urinary pharmacokinetic parameters were analyzed using noncompartmental methods.

[2] = Example 1 single-dose plasma pharmacokinetics after intranasal administration; conditions: single intranasal 160 mg cocaine HCl; for AUC(0-inf) / AUC(0-t) / Cmax / MRT / Tmax / Vd/F / half-life: human, inhaled or intranasal, 160 mg
Procedure: Single-dose plasma and urinary pharmacokinetics of the pharmaceutical composition following intranasal administration was characterized in this study. This was a single-dose study in 30 healthy volunteers. The objective of the study was to examine the systemic pharmacokinetics of the pharmaceutical composition following acute, topical intranasal administration.
as §1
Blood samples were collected pre-dose (30 minutes before pledget insertion), and 7.5, 15, 20, 30, 45, 60, 75, 90, and 105 minutes and 2, 3, 4, 6, 8, 10, and 12 hours from the start of application of the pharmaceutical composition.
The effect of gender on Cmax, Tmax, AUClast, AUCinf, and t1/2 was determined. The effects of age, body weight, and BMI on AUClast were determined.

[3] = Example 3 urinary pharmacokinetics, normal hepatic function vs hepatic impairment; conditions: for Urine Recovery as % of Dose, Geomean / Urine Recovery as % of Dose, Mean: 0-32 h, single intranasal dose; for CL renal: both sexes, other: intranasal (drug-soaked pledgets in the nasal cavity), 160 mg; for CL renal / dose excreted: human, urine; for dose excreted: other: intranasal, read-out: 0-32 h urinary recovery of unchanged drug as percent of the administered dose
Procedure: Urine was collected prior to dosing and from 0-2, 2-4, 4-8, 8-12, 12-24, and 24-32 hours after beginning of dose application. […] Urinary pharmacokinetic parameters included total urinary recovery (μg), urinary recovery as a percentage of dose, and CLr.

[4] = normal hepatic function, single intranasal 160 mg cocaine HCl
[5] = subjects with hepatic impairment, 32 hours post administration

Compound: COC(=O)[C@H]1[C@@H](OC(=O)c2ccccc2)C[C@@H]2CC[C@H]1N2C [Cocaine, cocaine, reference compound]
- CL renal ([1]; inhaled or intranasal, read-out: Renal Clearance (Median) (converted)): 42.7 mL/min
- dose excreted ([1]; read-out: Urinary Recovery (Geometric mean)): 0.0603%
- dose excreted ([1]; read-out: Urinary Recovery (Mean)): 0.0729%
- dose excreted ([1]; read-out: Urinary Recovery (Median)): 0.0714%
- AUC(0-inf) ([2]; both sexes, plasma, healthy subjects, plasma, read-out: AUCinf (Geometric Mean)): 0.0503 µg·h/mL
- AUC(0-inf) ([2]; both sexes, plasma, healthy subjects, plasma, read-out: AUCinf (Mean)): 0.0549 µg·h/mL
- AUC(0-t) ([2]; both sexes, plasma, healthy subjects, plasma, read-out: AUClast (Geometric Mean)): 0.0342 µg·h/mL
- AUC(0-t) ([2]; both sexes, plasma, healthy subjects, plasma, read-out: AUClast (Mean)): 0.0384 µg·h/mL
- Cmax ([2]; both sexes, plasma, healthy subjects, plasma, read-out: Cmax (Geometric Mean)): 0.0328 µg/mL
- MRT ([2]; both sexes, plasma, healthy subjects, plasma, read-out: MRT (Geometric Mean)): 90 min
- MRT ([2]; both sexes, plasma, healthy subjects, plasma, read-out: MRT (Mean)): 93.6 min
- Tmax ([2]; both sexes, plasma, healthy subjects, plasma, read-out: Tmax (Geometric Mean)): 22.4 min
- Vd/F ([2]; both sexes, plasma, healthy subjects, plasma, read-out: Vd/F (Geometric Mean)): 3680 L
- Vd/F ([2]; both sexes, plasma, healthy subjects, plasma, read-out: Vd/F (Mean)): 3880 L
- AUC(0-inf) ([2]; female, plasma, Female healthy subjects, plasma, read-out: AUCinf (Geometric mean)): 0.0539 µg·h/mL
- AUC(0-inf) ([2]; female, plasma, Female healthy subjects, plasma, read-out: AUCinf (Mean)): 0.0606 µg·h/mL
- AUC(0-inf) ([2]; female, plasma, Female healthy subjects, plasma, read-out: AUCinf (Median)): 0.0576 µg·h/mL
- AUC(0-t) ([2]; female, plasma, Female healthy subjects, plasma, read-out: AUClast (Geometric mean)): 0.0394 µg·h/mL
- AUC(0-t) ([2]; female, plasma, Female healthy subjects, plasma, read-out: AUClast (Mean)): 0.0444 µg·h/mL
- AUC(0-t) ([2]; female, plasma, Female healthy subjects, plasma, read-out: AUClast (Median)): 0.0324 µg·h/mL
- Cmax ([2]; female, plasma, Female healthy subjects, plasma, read-out: Cmax (Geometric mean)): 0.0355 µg/mL
- Cmax ([2]; female, plasma, Female healthy subjects, plasma, read-out: Cmax (Mean)): 0.039 µg/mL
- Cmax ([2]; female, plasma, Female healthy subjects, plasma, read-out: Cmax (Median)): 0.037 µg/mL
- Tmax ([2]; female, plasma, Female healthy subjects, plasma, read-out: Tmax (Geometric mean)): 23.1 min
- Tmax ([2]; female, plasma, Female healthy subjects, plasma, read-out: Tmax (Mean)): 26.9 min
- Tmax ([2]; female, plasma, Female healthy subjects, plasma, read-out: Tmax (Median)): 20 min
- half-life ([2]; female, plasma, Female healthy subjects, plasma, read-out: t1/2 (Geometric mean) (converted)): 56.5 min
- half-life ([2]; female, plasma, Female healthy subjects, plasma, read-out: t1/2 (Mean) (converted)): 60.6 min
- half-life ([2]; female, plasma, Female healthy subjects, plasma, read-out: t1/2 (Median) (converted)): 60.6 min
- fraction of the 160 mg dose absorbed intact during the 20-minute exposure period (rough estimate, CL/F vs intravenous CL) ([2]; healthy subjects): ~4%
- % EXTRAP (Geometric Mean) ([2]; healthy subjects, plasma): 17.7%
- % EXTRAP (Mean) ([2]; healthy subjects, plasma): 18.7%
- CL/F (Mean) ([2]; healthy subjects, plasma): 3,096 L/h
- Clast (Geometric mean) ([2]; healthy subjects, plasma): 0.00705 µg/mL
- Clast (Mean) ([2]; healthy subjects, plasma): 0.00718 µg/mL
- Tlast (Geometric mean) ([2]; healthy subjects, plasma): 2.31 h
- Tlast (Mean) ([2]; healthy subjects, plasma): 2.40 h
- Tmax (Mean) ([2]; healthy subjects, plasma): 26 min
- t1/2 (Geometric mean) ([2]; healthy subjects, plasma): 58.5 min
- Cmax ([2]; plasma, healthy subjects, plasma, read-out: Cmax (Mean)): 0.037 ± 0.0173 µg/mL
- Cmax ([2]; plasma, healthy subjects, plasma, read-out: Cmax (range across subjects)): 0.00793 to 0.0703 µg/mL
- Tmax ([2]; plasma, healthy subjects, plasma, read-out: Tmax (Mean)): 25.8 ± 20.4 min
- half-life ([2]; plasma, healthy subjects, plasma, read-out: t1/2 (Mean) (converted)): 62.4 ± 21 min
- AUC(0-inf) ([2]; male, plasma, Male healthy subjects, plasma, read-out: AUCinf (Geometric mean)): 0.0457 µg·h/mL
- AUC(0-inf) ([2]; male, plasma, Male healthy subjects, plasma, read-out: AUCinf (Mean)): 0.0472 µg·h/mL
- AUC(0-inf) ([2]; male, plasma, Male healthy subjects, plasma, read-out: AUCinf (Median)): 0.0462 µg·h/mL
- AUC(0-t) ([2]; male, plasma, Male healthy subjects, plasma, read-out: AUClast (Geometric mean)): 0.0291 µg·h/mL
- AUC(0-t) ([2]; male, plasma, Male healthy subjects, plasma, read-out: AUClast (Mean)): 0.0315 µg·h/mL
- AUC(0-t) ([2]; male, plasma, Male healthy subjects, plasma, read-out: AUClast (Median)): 0.0285 µg·h/mL
- Cmax ([2]; male, plasma, Male healthy subjects, plasma, read-out: Cmax (Geometric mean)): 0.03 µg/mL
- Cmax ([2]; male, plasma, Male healthy subjects, plasma, read-out: Cmax (Mean)): 0.0346 µg/mL
- Cmax ([2]; male, plasma, Male healthy subjects, plasma, read-out: Cmax (Median)): 0.0316 µg/mL
- Tmax ([2]; male, plasma, Male healthy subjects, plasma, read-out: Tmax (Geometric mean)): 21.7 min
- Tmax ([2]; male, plasma, Male healthy subjects, plasma, read-out: Tmax (Mean)): 25 min
- Tmax ([2]; male, plasma, Male healthy subjects, plasma, read-out: Tmax (Median)): 20 min
- half-life ([2]; male, plasma, Male healthy subjects, plasma, read-out: t1/2 (Geometric mean) (converted)): 60.6 min
- half-life ([2]; male, plasma, Male healthy subjects, plasma, read-out: t1/2 (Mean) (converted)): 63.6 min
- half-life ([2]; male, plasma, Male healthy subjects, plasma, read-out: t1/2 (Median) (converted)): 58 min
- Urine Recovery as % of Dose, Geomean ([3]; Impaired hepatic function): 0.071 % of Dose
- Urine Recovery as % of Dose, Mean ([3]; Impaired hepatic function): 0.143 % of Dose
- Urine Recovery as % of Dose, Geomean ([3]; Normal hepatic function): 0.057 % of Dose
- Urine Recovery as % of Dose, Mean ([3]; Normal hepatic function): 0.072 % of Dose
- CL renal ([3]; Impaired hepatic function, Table 26, read-out: CLr Geomean (converted)): 7.8 mL/min
- CL renal ([3]; Impaired hepatic function, Table 26, read-out: CLr Mean (converted)): 16.6 mL/min
- CL renal ([3]; Normal hepatic function, Table 26, read-out: CLr Geomean (converted)): 19.5 mL/min
- CL renal ([3]; Normal hepatic function, Table 26, read-out: CLr Mean (converted)): 29.8 mL/min
- CL renal ([3]; hepatically impaired patients, 32 hours from administration, read-out: renal clearance, range observed): 1.27 to 32 mL/min
- CL renal ([3]; subjects with hepatic impairment, Table 30, read-out: Renal Clearance, geometric mean (converted)): 7.79 mL/min
- CL renal ([3]; subjects with hepatic impairment, Table 30, read-out: Renal Clearance, mean (converted)): 16.6 mL/min
- CL renal ([3]; subjects with hepatic impairment, Table 30, read-out: Renal Clearance, median (converted)): 15.6 mL/min
- CL renal ([3]; subjects with hepatic impairment, read-out: Renal Clearance, geometric mean (converted)): 7.79 mL/min
- CL renal ([3]; subjects with hepatic impairment, read-out: Renal Clearance, mean (converted)): 16.6 mL/min
- CL renal ([3]; subjects with hepatic impairment, read-out: Renal Clearance, median (converted)): 15.6 mL/min
- CL renal ([3]; subjects with normal hepatic function, Table 29, read-out: Renal Clearance, geometric mean (converted)): 19.5 mL/min
- CL renal ([3]; subjects with normal hepatic function, Table 29, read-out: Renal Clearance, mean (converted)): 29.8 mL/min
- CL renal ([3]; subjects with normal hepatic function, Table 29, read-out: Renal Clearance, median (converted)): 22 mL/min
- CL renal ([3]; subjects with normal hepatic function, read-out: Renal Clearance, geometric mean (converted)): 19.5 mL/min
- CL renal ([3]; subjects with normal hepatic function, read-out: Renal Clearance, mean (converted)): 29.8 mL/min
- CL renal ([3]; subjects with normal hepatic function, read-out: Renal Clearance, median (converted)): 22 mL/min
- dose excreted ([3]; hepatic impairment): 0.071%
- dose excreted ([3]; normal hepatic function): 0.057%
- 0-32 h Urinary Recovery (geometric mean) [3, 4]: 81.5 µg
- 0-32 h Urinary Recovery (mean) [3, 4]: 102.25 µg
- 0-32 h Urinary Recovery (median) [3, 4]: 108.1 µg
- 0-32 h Urinary Recovery (geometric mean) [3, 5]: 101.4 µg
- 0-32 h Urinary Recovery (mean) [3, 5]: 204 µg
- 0-32 h Urinary Recovery (median) [3, 5]: 193.5 µg
